Tests used:
[1] = tested on: rat annulus fibrosus cells; assay: Alteration in gene expression by oxidative stress inducers (RT-PCR); format: cell-based; settings: 24 hours
Protocol: (§1) Total RNA was prepared using RNeasy Mini kit (manufactured by Qiagen N.V.) or TRIzol Reagent (manufactured by Thermo Fisher Scientific Inc.). cDNA was synthesized using Prime Script RT Reagent Kit (manufactured by Takara Bio Inc.).
(§2) RT-PCR amplification was performed with Thermal Cycler Dice Real-Time System (manufactured by Takara Bio Inc.) using SYBR Premix Ex Taq (manufactured by Takara Bio Inc.). Expression was normalized to β-actin or hypoxanthine phosphoribosyl transferase (HPRT). The results were analyzed by the ddCt method.
(§3) The PCR primers used were as follows: • TNF-α (F) : 5'-[…]-3' (SEQ ID NO: 1) (R) : 5'-[…]-3' (SEQ ID NO: 2) • MMP-3 (F) : 5'-[…]-3' (SEQ ID NO: 3) (R) : 5'-[…]-3' (SEQ ID NO: 4) • COX-2 (F) : 5'-[…]-3' (SEQ ID NO: 5) (R) : 5'-[…]-3' (SEQ ID NO: 6) • AGC1 (F) : 5'-[…]-3' (SEQ ID NO: 7) (R) : 5'-[…]-3' (SEQ ID NO: 8) • β-actin (F) : 5'-[…]-3' (SEQ ID NO: 9) (R) : 5'-[…]-3' (SEQ ID NO: 10) • HPRT (F) : 5'-[…]-3' (SEQ ID NO: 11) (R) : 5'-[…]-3' (SEQ ID NO: 12)
(§4) Rat annulus fibrosus cells were prepared as follows: rat annulus fibrosus tissues were dissected from the lumbar and coccyx intervertebral discs of 8-week-old female Wistar rats, treated with DMEM containing 0.04% pronase E (manufactured by SERVA Electrophoresis GmbH) at 37°C for 1 hour, and subsequently treated with 0.025% collagenase P (manufactured by Roche Diagnostics K.K.) at 37°C for 4 hours for isolation. The isolated cells were washed with Dulbecco's modified Eagle's medium (DMEM, manufactured by Invitrogen Corp.) containing 5% heat-inactivated fetal bovine serum (manufactured by JRH Biosciences Lenexa). The isolated annulus fibrosus cells were cultured in DMEM containing 10% fetal bovine serum and 1% penicillin-streptomycin under conditions of 5% CO2 at 37°C. The cells were used within the first five passages for analysis.
Rat annulus fibrosus cells were cultured in a medium added with hydrogen peroxide (concentration: 10 µM and 100 µM) or BSO (concentration: 0.2 mM and 1 mM) for 24 hours and collected. RNA was extracted, and the mRNA expression of TNF-α, MMP-3, COX-2, and aggrecan was quantitatively measured by RT-PCR. RNA extraction and RT-PCR were performed in the same way as in the model animals described above.

[2] = tested on: rat annulus fibrosus cells; assay: Intracellular level of reactive oxygen species (MitoTracker Orange staining, cell sorter); format: cell-based
Protocol: as §4

[3] = tested on: MAPKs (p38, ERK, and JNK); assay: MAPK phosphorylation after oxidative stress (Western blotting); format: cell-based, rat; settings: for phosphorylation of the MAPKs p38, ERK, and JNK: 10 minutes after treatment
Protocol: Western blotting was performed by a standard method.
Downstream signals of oxidative stress were studied. The involvement of MAPKs (p38, ERK, and JNK) in the downstream system of signals induced by reactive oxygen species was analyzed. […] Protein extraction and Western blotting were performed in the same way as in the experiment using the animal models described above.
Detection was performed using an anti-p38 antibody, an anti-phosphorylated p38 antibody, an anti-JNK antibody, an anti-phosphorylated JNK antibody, an anti-ERK antibody, an anti-phosphorylated ERK antibody, an anti-NF-KB p65 antibody, an anti-phosphorylated NF-κB p65 antibody, or an anti-β-actin antibody (all manufactured by Cell Signaling Technology, Inc.) as a primary antibody, a HRP-conjugated goat anti-rabbit antibody (manufactured by Sigma-Aldrich Co. LLC) as a secondary antibody, and ECL Western Blotting Detection Reagent.
Likewise, downstream signals of oxidative stress were studied by the addition of BSO. Annulus fibrosus cells were treated with 1 mM BSO, collected 0, 5, 10, 30, or 60 minutes later, and analyzed by Western blotting.

[4] = tested on: intervertebral disc degeneration; settings: procedures for causing degeneration carried out after 1-week oral administration; Non Patent Literature 5; cited from earlier work
[5] = tested on: MAPK signaling cascade; assay: Effect on MAPK signaling cascade activation caused by TNF-α (Western blotting); format: cell-based, rat; settings: 50 ng/ml TNF-α in the presence of 100 µM NAC
Protocol: NAC was also analyzed for whether to suppress phosphorylation in the MAPK signaling cascade generating downstream signals of oxidative stress (Figure 6E). In the same way as above, cells were treated with 50 ng/ml TNF-α in the presence of 100 µM NAC and analyzed by Western blotting.

[6] = tested on: rat annulus fibrosus cells; assay: Effect of antioxidants on oxidative stress induced by TNF-α (gene expression by RT-PCR); format: cell-based; settings: 24 hours
Protocol: Next, NAC or tocopherol was analyzed for whether to reduce oxidative stress induced by TNF-α by its addition. 50 ng/ml of TNF-α was added to cells in the presence of 100 µM NAC or 20 mM α-tocopherol, and the cells were collected 24 hours later, followed by gene expression analysis on MMP-3, COX-2, and aggrecan by RT-PCR (Figures 6C and 6D). NAC and tocopherol were also shown to suppress oxidative stress induced by the addition of TNF-α.

[7] = tested on: intervertebral disc degeneration models; assay: Rat caudal intervertebral disc puncture model, Q-space imaging (QSI) analysis; format: in vivo
Protocol: (§5) The present inventors prepared rat intervertebral disc degeneration models in the same way as above and conducted QSI analysis. Here, the QSI analysis was conducted using our uniquely developed program, though the analysis can employ software such as dTV II FZR. A puncture group, a NAC group, and a control group each involving 5 rats were subjected to the respective procedures and analyzed. […] The comparison of analysis results among the control group (a and d), the puncture group (b and e), and the NAC group (c and f) is shown.

[8] = tested on: rat annulus fibrosus cells; assay: Effect of antioxidants on gene expression under oxidative stress induced by hydrogen peroxide or BSO (RT-PCR); format: cell-based; settings: 24 hours
Protocol: as §1, §2, §3
100 µM hydrogen peroxide or 1 mM BSO was added to rat annulus fibrosus cells in the presence of 100 µM NAC, and the cells were cultured for 24 hours, followed by the measurement of the mRNA expression of TNF-α, MMP-3, COX-2, and aggrecan (Figures 4A and 4B).
Hydrogen peroxide or BSO was added to rat annulus fibrosus cells in the presence of 20 mM α-tocopherol, and the cells were cultured for 24 hours, followed by the measurement of the mRNA expression of TNF-α, MMP-3, COX-2, and aggrecan (Figures 5A and 5B). Here, ethanol was used as a solvent for α-tocopherol. Cells cultured in a medium added only with ethanol were used as a control.

[9] = tested on: intervertebral disc degeneration models; assay: Rat caudal intervertebral disc puncture model, therapeutic administration, T2-weighted MRI; format: in vivo, Wistar rats
Protocol: The involvement of oxidative stress in intervertebral disc degeneration was studied. The caudal intervertebral discs of 8-week-old Wistar rats were punctured using a 23-G needle to prepare intervertebral disc degeneration models. A group that underwent only development without puncture (sham group) was used as a control group. Two months after the puncture, the T2 intramedullary high-intensity area was measured by MRI (GE Sigma Excite HD 1.5T, manufactured by GE Healthcare Corp.) under the following conditions: TR/TE, 3000/86; echo train length, 12; slice thickness, 2 mm; FOV, 10 cm; matrix size 352X224; NEX, 10 times.
The caudal intervertebral discs of 8-week-old female Wistar rats were punctured using a 23-G needle to prepare intervertebral disc degeneration models. The animals were divided into a group given NAC water (1 g/L) from 1 week after the puncture (NAC group) and a group raised with normal water (puncture group). A group that underwent only development without puncture (control group) was used as a control. Whether or not the administration of NAC would suppress intervertebral disc degeneration was studied 2 months after the puncture (see Figure 7A). The average body weight of the rats during the administration of NAC water was 220 g, and the average water intake of 24 hours was 35 g; thus, the rats took 159 mg/kg/day of NAC on average per day. The items to be studied were histological evaluation and a T2 intramedullary high-intensity area by MRI.
as §5

[10] = tested on: COX-2 mRNA expression; assay: Effect of MAPK inhibitors on COX-2 gene expression under oxidative stress (RT-PCR); format: cell-based, rat; settings: MAPK inhibitor 10 µM, 30 minutes later 100 µM hydrogen peroxide or 1 mM BSO; RT-PCR 24 hours later
Protocol: Hydrogen peroxide or BSO was added to rat annulus fibrosus cells in the presence of MAPK inhibitors, and their effects on an increase in COX-2 mRNA expression were analyzed. The MAPK inhibitors used were PD98059 (ERK inhibitor; represented by PD in Figure 3), SP600125 (JNK inhibitor; represented by SP in Figure 3), and SB203580 (p38 inhibitor; represented by SB in Figure 3) (all manufactured by Wako Pure Chemical Industries, Ltd.). These MAPK inhibitors were each added at concentration of 10 µM to a medium, and 30 minutes later, 100 µM hydrogen peroxide or 1 mM BSO was added thereto. The expression of COX-2 was analyzed by RT-PCR 24 hours later.

[11] = puncture group versus NAC group
[12] = 100 µM NAC, 100 µM hydrogen peroxide or 1 mM BSO
[13] = hydrogen peroxide 10 µM and 100 µM
[14] = 20 mM α-tocopherol, hydrogen peroxide or BSO, ethanol control

CCCCS(=N)(=O)CCC(N)C(=O)O (stereo not drawn) [BSO, buthionine sulfoximine]
mRNA expression of COX-2 ([1]; BSO 0.2 mM and 1 mM): concentration-dependent increase
mRNA expression of MMP-3 ([1]; BSO 0.2 mM and 1 mM): concentration-dependent increase
mRNA expression of TNF-α ([1]; BSO 0.2 mM and 1 mM): concentration-dependent increase
mRNA expression of aggrecan ([1]; BSO 0.2 mM and 1 mM): reduced in a concentration-dependent manner
intracellular level of reactive oxygen species ([2]; 1 mM BSO for 24 hours): increase
phosphorylation of the MAPKs p38, ERK, and JNK ([3]; 1 mM BSO): strongly phosphorylated

CC(=O)N[C@@H](CS)C(=O)O [NAC, N-acetylcysteine]
intervertebral disc degeneration [4]: prevented
activation of the MAPK signaling cascade caused by stimulation with TNF-α [5]: suppressed
oxidative stress induced by the addition of TNF-α (gene expression of MMP-3, COX-2, and aggrecan) ([6]; 50 ng/ml TNF-α in the presence of 100 µM NAC): suppress
phosphorylation of p38 MAPK ([3]; 100 µM hydrogen peroxide in the presence of 100 µM NAC, 15 minutes): significantly suppressed
QSI analysis (probability at zero displacement), difference between the puncture group and the NAC group ([7]; 5 rats per group): showed the difference
QSI parameter values [7, 11]: significant difference
increase in the expression of COX-2 by oxidative stress [8, 12]: significantly suppressed
increase in the expression of MMP-3 by oxidative stress [8, 12]: significantly suppressed
increase in the expression of TNF-α by oxidative stress [8, 12]: significantly suppressed
reduction in the expression of aggrecan by oxidative stress [8, 12]: suppressed
effect of administration in an experiment using rats ([9]; 159 mg/kg/day): effective
T2-weighted images, difference between the puncture group and the NAC group ([9]; 5 rats per group): rarely showed the difference
T2 high-intensity area ([9]; NAC water (1 g/L, 159 mg/kg/day) from 1 week after puncture, MRI 2 months after puncture, NAC group compared with puncture group): significantly improved
T2 mapping values obtained from T2-weighted images focused on the nucleus pulposus [9, 11]: did not significantly differ

COc1cccc(-c2cc(=O)c3ccccc3o2)c1N [PD]
expression of COX-2 [10]: significantly suppressed

C[S+]([O-])c1ccc(-c2nc(-c3ccncc3)c(-c3ccc(F)cc3)[nH]2)cc1 (stereo not drawn) [SB]
expression of COX-2 [10]: significantly suppressed

OO [hydrogen peroxide]
mRNA expression of COX-2 [1, 13]: concentration-dependent increase
mRNA expression of MMP-3 [1, 13]: concentration-dependent increase
mRNA expression of TNF-α [1, 13]: concentration-dependent increase
mRNA expression of aggrecan [1, 13]: reduced in a concentration-dependent manner
intracellular level of reactive oxygen species ([2]; 100 µM hydrogen peroxide for 24 hours): increase
phosphorylation of the MAPKs p38, ERK, and JNK ([3]; 100 µM hydrogen peroxide): strongly phosphorylated

Cc1c(C)c2c(c(C)c1O)CCC(C)(CCCC(C)CCCC(C)CCCC(C)C)O2 (stereo not drawn) [α-tocopherol]
oxidative stress induced by the addition of TNF-α (gene expression of MMP-3, COX-2, and aggrecan) ([6]; 50 ng/ml TNF-α in the presence of 20 mM α-tocopherol): suppress
increase in the expression of COX-2 by oxidative stress [8, 14]: significantly suppressed
increase in the expression of MMP-3 by oxidative stress [8, 14]: significantly suppressed
increase in the expression of TNF-α by oxidative stress [8, 14]: significantly suppressed
reduction in the expression of aggrecan by oxidative stress [8, 14]: suppressed
